Values after ≈ are worked out from the molar mass of the structure shown.
Tests used:
Format in all cases: functional
Bacillus subtilis = assay: Antibacterial activity against Bacillus subtilis CCTCC AB2013121 by broth microdilution method
Bacillus thuringiensis = assay: Antibacterial activity against Bacillus thuringiensis CCTCC AB2013119 by broth microdilution method
Micrococcus luteus = assay: Antibacterial activity against Micrococcus luteus CCTCC AB2013120 by broth microdilution method
Enterococcus faecalis = assay: Antibacterial activity against Enterococcus faecalis ATCC 29212 by broth microdilution method
Staphylococcus aureus = assay: Antibacterial activity against Staphylococcus aureus ATCC 29213 by broth microdilution method

Compound	MIC (Bacillus subtilis)	MIC (Bacillus thuringiensis)	MIC (Micrococcus luteus)	MIC (Enterococcus faecalis)	MIC (Staphylococcus aureus)
CC(/C=C/C(O)=C1/C(=O)CNC1=O)=C\[C@@H](C)[C@H]1O[C@@]23O[C@H](C(=O)C[C@]2(C)O[C@H](C)[C@@H]3C(=O)O)[C@@H]1C	> 128 µg/mL	32 µg/mL (≈ 65.4 µM)	> 128 µg/mL	> 128 µg/mL	> 128 µg/mL
COC(=O)[C@H]1[C@@H](C)O[C@@]2(C)CC(=O)[C@H]3O[C@@]12O[C@H]([C@H](C)/C=C(C)/C=C/C(O)=C1/C(=O)CNC1=O)[C@H]3C	> 128 µg/mL	0.5 µg/mL (≈ 0.993 µM)	16 µg/mL (≈ 31.8 µM)	4 µg/mL (≈ 7.94 µM)	32 µg/mL (≈ 63.5 µM)
